Reference: PMC6369001 (European journal of medicinal chemistry, 2019)
Structures can show the parent of a compound that is named as a salt.

How the values were obtained:
effects of cocaine = conditions: cited from earlier work; for Effects against cocaine in behavioral models: rodents, ref 32 (compound 1), ref 34 (compound 2)
[1] = system: effects of methamphetamine; conditions: mice; ref 33 (compound 1), ref 35 (compound 2, pretreatment); cited from earlier work
σ2R = target: T1, σ2R (Rattus norvegicus, UniProt Q5U3Y7); assay: σ2R radioligand competition binding; conditions: selectivity ratio σ1R over σ2R
T1 sequence (Q5U3Y7 1-176): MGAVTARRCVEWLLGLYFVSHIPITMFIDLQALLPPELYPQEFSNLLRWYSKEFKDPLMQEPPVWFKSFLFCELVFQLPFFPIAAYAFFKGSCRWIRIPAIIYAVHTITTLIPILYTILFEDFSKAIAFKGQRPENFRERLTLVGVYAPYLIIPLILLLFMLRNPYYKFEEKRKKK

[2] = system: cocaine-induced convulsions; assay: In vivo cocaine-induced convulsion studies; conditions: mice, 10 mg/kg i.p. pretreatment; P<0.005 vs vehicle, Fisher's exact test
[3] = target: norepinephrine transporters (Rattus norvegicus, UniProt Q63380); assay: Norepinephrine transporter binding
serotonin transporters = serotonin transporters (Rattus norvegicus, UniProt P31652); assay: Serotonin transporter binding; conditions: ratio of Ki serotonin transporter to Ki σ2R
[4] = target: Serotonin (5-HT2) receptors (Rattus norvegicus, UniProt P14842); assay: Serotonin; type: binding; conditions: ratio of Ki 5-HT2 to Ki σ2R
Chain of Serotonin (5-HT2) receptors (P14842 whole entry): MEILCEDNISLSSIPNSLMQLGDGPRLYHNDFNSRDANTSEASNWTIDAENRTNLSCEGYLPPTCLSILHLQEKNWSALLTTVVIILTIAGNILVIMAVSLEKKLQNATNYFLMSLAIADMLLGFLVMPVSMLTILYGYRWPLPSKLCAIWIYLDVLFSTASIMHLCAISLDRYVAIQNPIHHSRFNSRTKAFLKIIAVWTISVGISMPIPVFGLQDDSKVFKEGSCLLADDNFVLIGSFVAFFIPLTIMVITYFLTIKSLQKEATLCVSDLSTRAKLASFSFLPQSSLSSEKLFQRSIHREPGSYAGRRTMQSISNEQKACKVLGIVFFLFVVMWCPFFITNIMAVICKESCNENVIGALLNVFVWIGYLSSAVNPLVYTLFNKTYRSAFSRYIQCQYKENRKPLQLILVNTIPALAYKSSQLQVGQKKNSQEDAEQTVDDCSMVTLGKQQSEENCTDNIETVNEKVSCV

Chain of norepinephrine transporters (Q63380 1-617): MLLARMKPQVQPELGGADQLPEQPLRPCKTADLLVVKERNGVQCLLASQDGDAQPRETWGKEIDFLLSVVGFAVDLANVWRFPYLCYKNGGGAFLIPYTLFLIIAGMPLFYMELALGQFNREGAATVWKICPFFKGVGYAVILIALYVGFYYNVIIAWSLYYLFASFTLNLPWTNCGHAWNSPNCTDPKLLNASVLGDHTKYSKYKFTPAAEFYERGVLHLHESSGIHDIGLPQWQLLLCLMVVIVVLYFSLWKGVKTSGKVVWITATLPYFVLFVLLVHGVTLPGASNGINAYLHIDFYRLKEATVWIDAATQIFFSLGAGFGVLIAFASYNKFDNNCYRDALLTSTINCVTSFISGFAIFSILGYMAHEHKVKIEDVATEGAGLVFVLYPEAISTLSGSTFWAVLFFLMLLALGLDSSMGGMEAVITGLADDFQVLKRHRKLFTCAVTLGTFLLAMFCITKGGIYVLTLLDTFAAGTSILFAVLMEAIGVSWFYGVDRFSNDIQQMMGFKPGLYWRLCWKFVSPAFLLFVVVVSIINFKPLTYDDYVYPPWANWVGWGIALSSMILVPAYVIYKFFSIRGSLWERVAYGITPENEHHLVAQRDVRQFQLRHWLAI
Chain of serotonin transporters (P31652 whole entry): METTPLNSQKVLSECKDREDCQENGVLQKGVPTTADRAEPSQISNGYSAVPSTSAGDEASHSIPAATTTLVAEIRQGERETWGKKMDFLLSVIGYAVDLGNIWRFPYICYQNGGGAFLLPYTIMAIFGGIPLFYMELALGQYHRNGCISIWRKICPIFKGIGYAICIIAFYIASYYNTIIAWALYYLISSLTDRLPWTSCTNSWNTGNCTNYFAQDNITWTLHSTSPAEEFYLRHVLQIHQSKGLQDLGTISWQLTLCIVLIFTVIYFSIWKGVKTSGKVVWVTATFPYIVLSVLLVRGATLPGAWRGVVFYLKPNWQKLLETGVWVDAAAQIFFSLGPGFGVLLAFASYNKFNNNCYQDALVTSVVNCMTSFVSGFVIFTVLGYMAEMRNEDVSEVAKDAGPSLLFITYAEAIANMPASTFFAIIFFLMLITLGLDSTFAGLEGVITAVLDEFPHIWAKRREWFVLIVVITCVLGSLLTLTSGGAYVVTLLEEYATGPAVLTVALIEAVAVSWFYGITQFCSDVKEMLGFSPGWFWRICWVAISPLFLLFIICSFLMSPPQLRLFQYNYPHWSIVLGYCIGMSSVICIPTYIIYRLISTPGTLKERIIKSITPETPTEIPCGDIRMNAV

Row | Compound | Effects against cocaine in behavioral models (effects of cocaine) | Effects against methamphetamine [1] | Ki [3] | further results
1 | S=c1sc2ccccc2n1CCCCN1CCN(C2CCCCC2)CC1 [Compound 1, 3-[4-(4-cyclohexylpiperazin-1-yl)butyl]-2(3H)-benzothiazolethione] | produced both acute and subchronic effects against cocaine | mitigate the effects of methamphetamine | – | –
2 | CCCn1c(=O)n(CCCCN2CCN(c3ccc(F)cc3)CC2)c2ccccc21 [Compound 14] | – | – | > 10 µM | Ki σ1/ Ki σ2 (σ2R): > 1000; Protective effect against cocaine-induced convulsions, statistical significance [2]: statistically significant
3 | CCCCCn1c(=O)n(CCCCN2CCN(c3ccc(F)cc3)CC2)c2ccccc21 [Compound 15, 1-{4-[4-(4-fluorophenyl)piperazin-1-yl]butyl}-3-pentyl-1,3-dihydrobenzimidazol-2-one dihydrochloride] | – | – | > 10 µM | 5-HTT/σ2R selectivity for σ2Rs (serotonin transporters): 104 fold; 5-HT2/σ2R preference for σ2Rs [4]: 58 fold
4 | CC(=O)c1ccc2c(c1)oc(=O)n2CCCCN1CCN(c2ccc(F)cc2)CC1 [Compound 2, 6-acetyl-3-{4-[4-(4-fluorophenyl)piperazin-1-yl]butyl}-2(3H)-benzoxazolone] | reduced the toxic and stimulant effects of cocaine | afforded protection against methamphetamine-induced hyperthermia, and striatal dopaminergic and serotonergic neurotoxicity | – | Sedation and incoordination (effects of cocaine; acute treatment): caused sedation and incoordination
